Laboratory results: US6409995B1, “Use of amino-substituted hydroxybenzophenones as photostable UV filters in cosmetic and pharmaceutical preparations” (BASF Aktiengesellschaft, priority 1999, dated 2002)

Legend:
[1] = UV absorption of the compounds (absorption maximum and specific absorbance); type: physicochemical; conditions: for λmax: UV absorption maximum; for E^11: specific absorbance at λmax
[2] = used alone or in combination with UV-B filters; cited from earlier work

| Compound | λmax [1] | E^11 [1] | melting point | photochemical stability [2] |
| --- | --- | --- | --- | --- |
| CCN(CC)c1ccc(C(=O)c2ccccc2C(=O)OC)c(O)c1 [Example 1, Methyl 2-(4-diethylamino-2-hydroxybenzoyl)benzoate] | 354 nm | 1173 | – | – |
| CCN(CC)c1ccc(C(=O)c2ccccc2)c(O)c1 [Example 2, 4-diethylamino-2-hydroxyphenyl phenyl ketone] | 359 nm | 1280 | 46 to 48 °C | – |
| O=C(O)c1ccccc1C(=O)c1ccc(N2CCCC2)cc1O [Example 3] | 355 nm | 1167 | 203 °C | – |
| COC(=O)c1ccccc1C(=O)c1ccc(N2CCCC2)cc1O [Example 4] | 355 nm | 1179 | 164 °C | – |
| COc1ccc(C(=O)CC(=O)c2ccc(C(C)(C)C)cc2)cc1 [PARSOL 1789, 4-(1,1-dimethylethyl)-4′-methoxydibenzoylmethane] | – | – | – | does not have sufficient photochemical stability |
